The target of the test is T1, F508delCFTR (Homo sapiens, UniProt P13569, DEL508-508).
T1 construct: expressed in transfected cells; host or cells: CFBE41o- (human lung derived epithelial cell line), doxycycline-inducible expression
Kind of test: Cell Surface Expression-Horse Radish Peroxidase (CSE-HRP) assay. The following applies: CFBE41o-F508delCFTR-HRP cells; for Maximum % activity (with co-corrector): with co-corrector (2 μM); for Maximum % activity (with co-corrector) / Maximum % activity (without co-corrector): normalized to on-plate positive control, highest concentration 20 μM. The class given is cell-based. Put shortly:
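CFBE41o- cells expressed F508delCFTR with HRP in the fourth exofacial loop, induced by 0.5 μg/mL doxycycline for 72 h at 37 °C. Compounds alone or with 2 μM co-corrector ran 18–24 h at 33 °C, 8-point 3-fold from 20 μM. Washed-cell luminol luminescence was normalized to DMSO and positive control, fitted sigmoidally for EC50 (three plates).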

Where [1] appears, read: test compound without co-corrector, 18-24 hours at 33° C., read-out: EC50 (without co-corrector).
The mark [2] stands for this setting: with co-corrector (2 μM of 3-[(2R,4R)-4-({[1-(2,2-difluoro-1,3-benzodioxol-5-yl)cyclopropyl]carbonyl}amino)-7-methoxy-3,4-dihydro-2H-chromen-2-yl]benzoic acid), read-out: EC50 (with co-corrector).

Like-named read-outs stand apart in the source and are kept apart here.

T1 sequence (P13569 with tags, fused parts or gaps DEL508-508): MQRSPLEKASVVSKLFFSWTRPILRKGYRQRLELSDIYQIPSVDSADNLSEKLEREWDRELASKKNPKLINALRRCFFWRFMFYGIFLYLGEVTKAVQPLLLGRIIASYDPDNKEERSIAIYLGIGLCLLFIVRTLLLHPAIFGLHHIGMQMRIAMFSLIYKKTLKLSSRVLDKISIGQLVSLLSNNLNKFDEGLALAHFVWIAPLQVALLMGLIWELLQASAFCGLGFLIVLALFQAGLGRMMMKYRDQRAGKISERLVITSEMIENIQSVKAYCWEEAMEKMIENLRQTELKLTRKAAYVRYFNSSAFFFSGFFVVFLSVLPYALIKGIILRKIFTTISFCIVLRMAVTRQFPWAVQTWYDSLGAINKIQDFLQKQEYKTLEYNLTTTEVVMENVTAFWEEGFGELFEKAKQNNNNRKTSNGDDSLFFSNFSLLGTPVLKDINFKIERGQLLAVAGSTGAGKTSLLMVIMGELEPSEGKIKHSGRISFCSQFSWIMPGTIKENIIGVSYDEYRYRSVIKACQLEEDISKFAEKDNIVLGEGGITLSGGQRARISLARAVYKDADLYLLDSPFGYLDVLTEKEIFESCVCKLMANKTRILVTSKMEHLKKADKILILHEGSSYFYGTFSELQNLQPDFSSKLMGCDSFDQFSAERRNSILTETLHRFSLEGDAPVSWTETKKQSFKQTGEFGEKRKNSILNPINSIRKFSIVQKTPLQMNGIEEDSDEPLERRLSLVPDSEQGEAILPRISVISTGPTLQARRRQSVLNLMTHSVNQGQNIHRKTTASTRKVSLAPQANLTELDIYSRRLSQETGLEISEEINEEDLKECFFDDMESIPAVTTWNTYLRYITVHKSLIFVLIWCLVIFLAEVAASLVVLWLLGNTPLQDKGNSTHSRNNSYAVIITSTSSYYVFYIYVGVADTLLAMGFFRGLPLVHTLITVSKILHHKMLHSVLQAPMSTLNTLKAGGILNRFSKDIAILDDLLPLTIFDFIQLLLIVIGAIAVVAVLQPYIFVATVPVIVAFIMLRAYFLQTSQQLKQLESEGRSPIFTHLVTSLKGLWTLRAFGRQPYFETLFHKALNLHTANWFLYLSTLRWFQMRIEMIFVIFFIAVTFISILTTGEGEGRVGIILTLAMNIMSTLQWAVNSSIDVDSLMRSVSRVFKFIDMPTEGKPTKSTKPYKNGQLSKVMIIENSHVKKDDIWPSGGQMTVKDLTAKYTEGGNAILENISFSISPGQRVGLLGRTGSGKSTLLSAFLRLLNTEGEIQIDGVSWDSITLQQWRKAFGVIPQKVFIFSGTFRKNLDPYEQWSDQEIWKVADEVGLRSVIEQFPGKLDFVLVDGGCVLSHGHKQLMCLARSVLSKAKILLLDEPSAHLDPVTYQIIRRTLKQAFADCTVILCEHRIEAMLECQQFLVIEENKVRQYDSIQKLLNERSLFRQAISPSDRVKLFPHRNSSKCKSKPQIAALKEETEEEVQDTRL

In general, EC50 refers to the concentration needed to bring the measured effect to its halfway point. Consider `COc1ccc(C(F)(F)F)cc1CO[C@H]1[C@H](C(C)(C)C)[C@@H](C(=O)O)N(C(=O)C2CCCCC2)[C@H]1c1ccccc1F` [Example 49, (2S,3R,4S,5S)-3-tert-butyl-1-(cyclohexanecarbonyl)-5-(2-fluorophenyl)-4-{[2-methoxy-5-(trifluoromethyl)phenyl]methoxy}pyrrolidine-2-carboxylic acid], for which the “Maximum % activity (with co-corrector)” value is “+++ (≥350)”; the “Maximum % activity (without co-corrector)” value was “++ (≥100 and <200)”. In addition, the EC50 under setting [1] lay in the range of 1000 to 10000 nM. Further, the EC50 under setting [2] lay within 1000 to 10000 nM.

For `COc1ccc(C(C)(C)C)cc1CO[C@H]1[C@H](C(C)(C)C)[C@@H](C(=O)O)N(C(=O)C2CCCCC2)[C@H]1c1ccccc1F` [Example 50, (2S,3R,4S,5S)-3-tert-butyl-4-[(5-tert-butyl-2-methoxyphenyl)methoxy]-1-(cyclohexanecarbonyl)-5-(2-fluorophenyl)pyrrolidine-2-carboxylic acid], the “Maximum % activity (with co-corrector)” value is “+++ (≥350)” and the “Maximum % activity (without co-corrector)” value is “+++ (≥200)”. Moreover, the EC50 under setting [1] is under 1000 nM. Under setting [2], the EC50 was under 1000 nM.

As for `COc1ncc(Br)cc1CO[C@H]1[C@H](C(C)(C)C)[C@@H](C(=O)O)N(C(=O)C2CCCCC2)[C@H]1c1ccccc1F` [Example 51, (2S,3R,4S,5S)-4-[(5-bromo-2-methoxypyridin-3-yl)methoxy]-3-tert-butyl-1-(cyclohexanecarbonyl)-5-(2-fluorophenyl)pyrrolidine-2-carboxylic acid], the “Maximum % activity (with co-corrector)” value is recorded as “+++ (≥350)”; the “Maximum % activity (without co-corrector)” value was “++ (≥100 and <200)”. The EC50 under setting [1] was 1000 to 10000 nM. Moreover, the EC50 under setting [2] fell in the range of 1000 to 10000 nM.

In the case of `COc1ncc(-c2ccccc2)cc1CO[C@H]1[C@H](C(C)(C)C)[C@@H](C(=O)O)N(C(=O)C2CCCCC2)[C@H]1c1ccccc1F` [Example 52, (2S,3R,4S,5S)-3-tert-butyl-1-(cyclohexanecarbonyl)-5-(2-fluorophenyl)-4-[(2-methoxy-5-phenylpyridin-3-yl)methoxy]pyrrolidine-2-carboxylic acid], the “Maximum % activity (with co-corrector)” value was “+++ (≥350)” and the “Maximum % activity (without co-corrector)” value was “+ (<100)”. Further, the EC50 under setting [1] is 1000 to 10000 nM. Moreover, the EC50 under setting [2] fell in the range of 1000 to 10000 nM.

With `COc1ncc(C2CCC2)cc1CO[C@H]1[C@H](C(C)(C)C)[C@@H](C(=O)O)N(C(=O)C2CCCCC2)[C@H]1c1ccccc1` [Example 53, (2S,3R,4S,5S)-3-tert-butyl-4-[(5-cyclobutyl-2-methoxypyridin-3-yl)methoxy]-1-(cyclohexanecarbonyl)-5-phenylpyrrolidine-2-carboxylic acid], the “Maximum % activity (with co-corrector)” value is recorded as “+++ (≥350)”; the “Maximum % activity (without co-corrector)” value was “++ (≥100 and <200)”. Under setting [1], the EC50 is under 1000 nM. Besides, under setting [2], the EC50 is under 1000 nM.

`COc1ncc(C2CCCC2)cc1CO[C@H]1[C@H](C(C)(C)C)[C@@H](C(=O)O)N(C(=O)C2CCCCC2)[C@H]1c1ccccc1` [Example 54, (2S,3R,4S,5S)-3-tert-butyl-1-(cyclohexanecarbonyl)-4-[(5-cyclopentyl-2-methoxypyridin-3-yl)methoxy]-5-phenylpyrrolidine-2-carboxylic acid]: the “Maximum % activity (with co-corrector)” value is “+++ (≥350)”; the “Maximum % activity (without co-corrector)” value is “++ (≥100 and <200)”. For the same compound, the EC50 under setting [1] is under 1000 nM. Also, under setting [2], the EC50 is under 1000 nM.

As to `COc1ncc(C2CC3CCC2C3)cc1CO[C@H]1[C@H](C(C)(C)C)[C@@H](C(=O)O)N(C(=O)C2CCCCC2)[C@H]1c1ccccc1` (stereo partly drawn) [Example 55, (2S,3R,4S,5S)-4-{[5-(bicyclo[2.2.1]heptan-2-yl)-2-methoxypyridin-3-yl]methoxy}-3-tert-butyl-1-(cyclohexanecarbonyl)-5-phenylpyrrolidine-2-carboxylic acid], the “Maximum % activity (with co-corrector)” value is on record as “+++ (≥350)”; the “Maximum % activity (without co-corrector)” value was “++ (≥100 and <200)”. Further, the EC50 under setting [1] was in the range of 1000 to 10000 nM. Further, the EC50 under setting [2] fell in the range of 1000 to 10000 nM.

Consider `COc1ncc(C2CCC2)cc1CO[C@H]1[C@H](C(C)(C)C)[C@@H](C(=O)O)N(C(=O)C2CCCCC2)[C@H]1c1ccccc1F` [Example 56, (2S,3R,4S,5S)-3-tert-butyl-4-[(5-cyclobutyl-2-methoxypyridin-3-yl)methoxy]-1-(cyclohexanecarbonyl)-5-(2-fluorophenyl)pyrrolidine-2-carboxylic acid], for which the “Maximum % activity (with co-corrector)” value is on record as “+++ (≥350)”; the “Maximum % activity (without co-corrector)” value is “++ (≥100 and <200)”. For the same compound, the EC50 under setting [1] was under 1000 nM. Further, the EC50 under setting [2] is under 1000 nM.

With `COc1ncc(C2CCCC2)cc1CO[C@H]1[C@H](C(C)(C)C)[C@@H](C(=O)O)N(C(=O)C2CCCCC2)[C@H]1c1ccccc1F` [Example 57, (2S,3R,4S,5S)-3-tert-butyl-1-(cyclohexanecarbonyl)-4-[(5-cyclopentyl-2-methoxypyridin-3-yl)methoxy]-5-(2-fluorophenyl)pyrrolidine-2-carboxylic acid], the “Maximum % activity (with co-corrector)” value is recorded as “+++ (≥350)”; the “Maximum % activity (without co-corrector)” value is “++ (≥100 and <200)”. Further, under setting [1], the EC50 fell in the range of 1000 to 10000 nM. Under setting [2], the EC50 is 1000 to 10000 nM.

In the case of `COc1ncc(C2CC3CCC2C3)cc1CO[C@H]1[C@H](C(C)(C)C)[C@@H](C(=O)O)N(C(=O)C2CCCCC2)[C@H]1c1ccccc1F` (stereo partly drawn) [Example 58, (2S,3R,4S,5S)-4-{[5-(bicyclo[2.2.1]heptan-2-yl)-2-methoxypyridin-3-yl]methoxy}-3-tert-butyl-1-(cyclohexanecarbonyl)-5-(2-fluorophenyl)pyrrolidine-2-carboxylic acid], the “Maximum % activity (with co-corrector)” value is listed as “+++ (≥350)”; the “Maximum % activity (without co-corrector)” value is “++ (≥100 and <200)”. Besides, under setting [1], the EC50 is under 1000 nM. Besides, the EC50 under setting [2] was under 1000 nM.

Turning to `COc1ncc(N2CCCC2)cc1CO[C@H]1[C@H](C(C)(C)C)[C@@H](C(=O)O)N(C(=O)C2CCCCC2)[C@H]1c1ccccc1F` [Example 59, (2S,3R,4S,5S)-3-tert-butyl-1-(cyclohexanecarbonyl)-5-(2-fluorophenyl)-4-{[2-methoxy-5-(pyrrolidin-1-yl)pyridin-3-yl]methoxy}pyrrolidine-2-carboxylic acid], the “Maximum % activity (with co-corrector)” value was “++ (≥150 and <350)”; the “Maximum % activity (without co-corrector)” value is reported as “+ (<100)”. Also, under setting [1], the EC50 was in the range of 1000 to 10000 nM. In addition, under setting [2], the EC50 is 1000 to 10000 nM.

On to `COc1ncc(C(C)(C)C)cc1CO[C@H]1[C@H](C(C)(C)C)[C@@H](C(=O)O)N(C(=O)C2CCCCC2)[C@H]1c1ccccc1` [Example 60, (2S,3R,4S,5S)-3-tert-butyl-4-[(5-tert-butyl-2-methoxypyridin-3-yl)methoxy]-1-(cyclohexanecarbonyl)-5-phenylpyrrolidine-2-carboxylic acid], for which the “Maximum % activity (with co-corrector)” value was “+++ (≥350)”; the “Maximum % activity (without co-corrector)” value is “++ (≥100 and <200)”. Further, the EC50 under setting [1] was under 1000 nM. Under setting [2], the EC50 is under 1000 nM.

For the origin of these results see patent publication US10399940B2, “Substituted pyrrolidines and methods of use” (AbbVie S.à.r.l., priority 2016, dated 2019).
